According to patent US5063245A, “Corticotropin-releasing factor antagonism compounds” (Nova Pharmaceutical Corporation, priority 1990, dated 1991):
Counter-ions that a name gives are not always drawn. Like-named read-outs stand apart in the source and are kept apart here.

Key:
[1] = target: CRF-stimulated adenylate cyclase; assay: Inhibition of CRF-stimulated adenylate cyclase activity (rat frontal cortex); format: biochemical; conditions: 1 μM oCRF, 37° C., 10 minutes
From the text: CRF antagonist activity is established by the ability of the compounds to antagonize CRF-stimulated adenylate cyclase activity, it having been established that CRF receptors are coupled to a guanine nucleotide regulatory protein that activates adenylate cyclase [G. Aguilera et al., Neuroendocrinology, 43, 79 (1986); G. Battaglia et al., Synapse, 1, 572 (1987)].
Male Sprague-Dawley rats (175-250 g) were sacrificed by decapitation, the frontal cortex was dissected and homogenized in 30 volumes (w/v) of ice-cold buffer (50 mM Tris HCl, 10 mM MgCl2, 2 mM EGTA; pH 7.2 at 22° C.). The homogenate was centrifuged at 40,000×g for 3 minutes (4° C.), the supernatant discarded and the pellet resuspended in original volume of fresh homogenization buffer. Following centrifugation at 40,000×g for 30 minutes, the resulting pellet was suspended to a tissue concentration of 20 mg original wet weight of tissue per mL (approximately 40-60 μg protein/mL). For determination of basal adenylate cyclase activity, assays are carried out at 37° C. for 10 minutes in 250 μL of buffer containing 100 mM Tris HCl, 10 mM MgCl2, 0.4 mM EGTA, 0.1% BSA, 1 mM isobutylmethylxanthine (IBMX), 3 units/tube phosphocreatine kinase, 5 mM creatine phosphate, 100 μM guanosine. Maximal stimulation of adenylate cyclase activity was accomplished by the addition of 10^-6 M oCRF. Stimulated enzyme activity generally represented a 75-95% increase over basal levels. Reactions were initiated by the addition of tissue and terminated by the addition of 150 μL of 50 mM Tris HCl, 45 mM ATP, 2% sodium dodecyl sulfate (SDS), and [^3 H] cAMP (approximately 40,000 dpm). The [^3 H]cAMP was added to each assay tube to monitor recovery of cAMP during subsequent chromatography steps. Separation of [^32 P]cAMP from [^32 P]ATP was accomplished by sequential elution over Dowex and alumina columns. The eluate (4 mL) was collected in 20 mL scintillation vials to which 8 mL of Beckman EP fluor was added. Vials were shaken for 30 minutes prior to measuring ^3 H and ^32 P by scintillation counting. All data were fed directly from the liquid scintillation counter via RS232 port to a VAX 8300 computer. Individual data points were expressed as pmoles of cAMP formed/10 minutes/mg protein. Protein content of tissue samples was measured using the BioRad method with bovine serum albumin serving as the standard.
Determination of antagonist activity was accomplished by addition of at least six concentrations of the compound (10^-8 -10^-4 M), evaluated in triplicate, in the presence of a maximally stimulating concentration of oCRF (1 μM). IC50 values were derived from a log-logit transformation of the data on a Vax 8300.

[2] = target: T1, CRF receptor (Rattus norvegicus, UniProt P35353); assay: In vitro receptor binding: inhibition of specific binding of [125I]tyrosine-oCRF to rat cerebral cortex membranes; conditions: [125I]Tyr-oCRF 50-100 pM, 2 hours at room temperature
T1 construct: the cerebral cortex was removed and the tissue homogenized; from tissue; host or cells: cerebral cortex membranes of male Sprague-Dawley rats
T1 sequence (P35353 24-415): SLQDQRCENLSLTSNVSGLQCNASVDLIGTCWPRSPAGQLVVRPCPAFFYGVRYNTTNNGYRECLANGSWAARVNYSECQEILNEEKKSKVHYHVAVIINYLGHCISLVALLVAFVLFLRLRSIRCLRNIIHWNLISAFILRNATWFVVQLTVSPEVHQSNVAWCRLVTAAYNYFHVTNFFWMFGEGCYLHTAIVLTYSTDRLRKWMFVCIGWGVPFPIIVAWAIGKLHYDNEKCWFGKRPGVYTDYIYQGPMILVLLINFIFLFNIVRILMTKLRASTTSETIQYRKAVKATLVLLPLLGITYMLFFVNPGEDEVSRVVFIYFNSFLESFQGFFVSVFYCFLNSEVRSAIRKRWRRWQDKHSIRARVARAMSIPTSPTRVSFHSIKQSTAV
Description: The potency of the compounds of the invention as inhibitors of the specific binding of radiolabeled CRF to rat cerebral cortex membranes was examined using a standard in vitro radioligand binding technique. […] The homogenate was centrifuged at 48,000×g for 10 minutes at 4° C. The supernatant was removed, the tissue pellet suspended in the original volume of fresh homogenization buffer using a Polytron and centrifuged as before. […] Incubation buffer consists of 50 mM Hepes (pH 7.0 at 22° C.) containing 10 mM MgCl2, 2 mM EGTA, 0.1 mM bacitracin, 100 KIU (kallikrein inhibitor units)/mL aprotinin and 0.1% BSA (bovine serum albumin). […] Nonspecific binding was determined in the presence of 1 μM oCRF. The binding reaction was allowed to proceed for 2 hours at room temperature. Bound radioligand was separated from the incubation medium by centrifugation in a Beckman microfuge for 5 minutes at 12,000×g. The supernatant was aspirated and the resulting pellet was washed with 1 mL of cold phosphate buffered saline (pH 7.2) containing 0.01% of Triton X-100.
Tyr-oCRF to rat cortical membranes was determined on at least three separate occasions using 8-10 concentrations of each compound and utilizing triplicate incubations. The IC50 and apparent Hill coefficient for each compound were calculated using a computer-assisted log-logit analysis.

[3] = Inhibition of CRF Binding, Rat Cerebral Cortex Membrane, IC50, Table I, Formula I
[4] = Table I, Formula I, read-out: Inhibition of CRF Binding, Rat Cerebral Cortex Membrane, IC50
[5] = Table II, Formula II (disulfides)
[6] = Table II, Formula II (disulfides), read-out: Inhibition of CRF Binding, Rat Cerebral Cortex Membrane, IC50

Compound	IC50 ([1]; Table I, Formula I) [µM]	IC50 [2, 3] [µM]	IC50 [2, 4] [µM]	IC50 [1, 5] [µM]	IC50 [2, 6] [µM]
Cc1c(SC#N)c(=O)n(-c2c(Cl)cccc2Cl)n1C [Formula I: 2,6-Cl2 Ph, CH3, CH3, SCN, 2,3-dimethyl-5-oxo-1-(2,6-dichlorophenyl)-3-pyrazolin-4-yl thiocyanate]	29.9	18.9			
CC(=O)Sc1c(C)n(C)n(-c2ccccc2)c1=O [Formula I: Ph, CH3, CH3, SAc, 2,3-dimethyl-5-oxo-1-phenyl-3-pyrazolin-4-yl thioacetate]	2.9		13.7		
CC(=O)Nc1cccc(-c2c(SC#N)c(=O)n(-c3ccccc3)n2C)c1 [Formula I: Ph, CH3,3-AcNHPh, SCN, 2-methyl-5-oxo-1-phenyl-3-(3-acetamidophenyl)-3-pyrazolin-4-yl thiocyanate]	3		6.5		
Cc1c(SSc2c(C)n(C)n(-c3ccccc3)c2=O)c(=O)n(-c2ccccc2)n1C [Formula II: Ph, CH3, CH3, 2,3-Dimethyl-5-Oxo-1-Phenyl-3-Pyrazolin-4-yl Disulfide]				1.1	2.2
CCn1c(C)c(SSc2c(C)n(CC)n(-c3ccccc3)c2=O)c(=O)n1-c1ccccc1 [Formula II: Ph, C2 H5, CH3, 2-ethyl-3-methyl-5-oxo-1-phenyl-3-pyrazolin-4-yl disulfide]				1	4.8
Cc1ccc(-n2c(=O)c(SC#N)c(C)n2C)cc1 [Formula I: 4-CH3 Ph, CH3, CH3, SCN, 2,3-dimethyl-5-oxo-1-(4-methylphenyl)-3-pyrazolin-4-yl thiocyanate]	9.1		8.6		
CCn1c(C)c(SC#N)c(=O)n1Cc1ccccc1 [Formula I: CH2 Ph, CH2 CH3, CH3, SCN, 1-benzyl-2-ethyl-3-methyl-5-oxo-3-pyrazolin-4-yl thiocyanate]	39.9		17		
Cc1c(SSc2c(C)n(C)n(-c3ccccc3)c2=O)c(=O)n(-c2ccccc2)n1C [Formula II: Ph, CH3, CH3, HCl, 2,3-Dimethyl-5-Oxo-1-Phenyl-3-Pyrazolin-4-yl Disulfide]				2.5	6.4
CCn1c(C)c(SC#N)c(=O)n1CC [Formula I: C2 H5, C2 H5, CH3, SCN, 1,2-diethyl-3-methyl-5-oxo-3-pyrazolin-4-yl thiocyanate]	29.4	111			
CCn1c(C)c(SC#N)c(=O)n1-c1cccc(Cl)c1 [Formula I: 3-ClPh, C2 H5, CH3, SCN, 2-ethyl-3-methyl-5-oxo-1-(3-chlorophenyl)-3-pyrazolin-4-yl thiocyanate]	6.9		7.4		
CCc1c(SSc2c(CC)n(C)n(-c3ccccc3)c2=O)c(=O)n(-c2ccccc2)n1C [Formula II: Ph, CH3, C2 H5, 3-ethyl-2-methyl-5-oxo-1-phenyl-3-pyrazolin-4-yl disulfide]				3.3	3.3
Cc1c(SC#N)c(=O)n(C2CCCCC2)n1C [Formula I: C6 H11, CH3, CH3, SCN, 1-cyclohexyl-2,3-dimethyl-5-oxo-3-pyrazolin-4-yl thiocyanate]	35.2		15		
Cn1c(N)c(SC#N)c(=O)n1-c1ccccc1 [Formula I: Ph, CH3, NH2, SCN, 3-amino-2-methyl-5-oxo-1-phenyl-3-pyrazolin-4-yl thiocyanate]	49.6		14.4		
Cc1c(SC(Cl)(Cl)Cl)c(=O)n(-c2ccccc2)n1C [Formula I: Ph, CH3, CH3, SCCl3, 2,3-Dimethyl-5-Oxo-1-Phenyl-3-4-trichloromethylthio-Pyrazoline]	9.6	20.4			
Cc1c(SC#N)c(=O)n(-c2ccccc2)n1-c1ccccc1 [Formula I: Ph, Ph, CH3, SCN, 3-methyl-5-oxo-1,2-phenyl-3-pyrazolin-4-yl thiocyanate]	6.1		16.1		
Cc1c(SC#N)c(=O)n(C)n1Cc1ccccc1 [2-benzyl-1,3-dimethyl-5-oxo-3-pyrazolin-4-yl thiocyanate, hemifumarate]	40.1	33.6			
CCn1c(C)c(SC#N)c(=O)n1-c1ccc(S(C)(=O)=O)cc1 [Formula I: 4-CH3 SO2 Ph, C2 H5, CH3, SCN, 2-ethyl-3-methyl-5-oxo-1-(4-methylsulfonylphenyl)-3-pyrazolin-4-yl thiocyanate]	11.4		17		
CCn1c(C)c(SC#N)c(=O)n1-c1ccc(Cl)c(Cl)c1 [Formula I: 3,4 Cl2 Ph, C2 H5, CH3, SCN, 2-ethyl-3-methyl-5-oxo-1-(3,4-dichlorophenyl)-3-pyrazolin-4-yl thiocyanate]	1.4	4.9			
CCCn1c(C)c(SC#N)c(=O)n1-c1ccccc1 [Formula I: Ph, (CH2)2 CH3, CH3, SCN, 3-methyl-5-oxo-1-phenyl-2-propyl-3-pyrazolin-4-yl thiocyanate]	16.9	32			
CCc1c(SC#N)c(=O)n(-c2ccccc2)n1C [Formula I: Ph, CH3, CH2 CH3, SCN, 3-ethyl-2-methyl-5-oxo-1-phenyl-3-pyrazolin-4-yl thiocyanate]	31.7		19.1		
CCc1c(SC#N)c(=O)n(CC)n1CC [Formula I: C2 H5, C2 H5, C2 H5, SCN, 1,2,3-triethyl-5-oxo-3-pyrazolin-4-yl thiocyanate]	45		67		
Cc1c(SC#N)c(=O)[nH]n1-c1ccc([N+](=O)[O-])cc1 [Formula I: H, 4-NO2 Ph, CH3, SCN]	69.3		32		
Cc1c(SC#N)c(=O)n(-c2cccc(C#N)c2)n1C [Formula I: 3-CNPh, CH3, CH3, SCN, 2,3-dimethyl-5-oxo-1-(3-cyanophenyl)-3-pyrazolin-4-yl thiocyanate]	6.9		15.5		
Cc1c(SC#N)c(=O)n(-c2ccccc2)n1C [Formula I: Ph, CH3, CH3, SCN, 2,3-dimethyl-5-oxo-1-phenyl-3-pyrazolin-4-yl thiocyanate]	19.5		16		
CCn1c(C)c(SSc2c(C)n(CC)n(Cc3ccccc3)c2=O)c(=O)n1Cc1ccccc1 [Formula II: CH2 Ph, C2 H5, CH3, 1-benzyl-2-ethyl-3-methyl-5-oxo-3-pyrazolin-4-yl disulfide]				3.8	4.3
